Results on two molecules are retold here after patent publication US20190248834A1, “ENDOMORPHIN-2, TETRAPEPTIDE DERIVATIVES THEREOF, AND USES THEREOF” (priority 2016, published 2019).

Non-standard residues stand in square brackets, D forms with d. pGlu = O=C1CC[C@@H](C(=O)O)N1

Assay type in all cases: in vivo, human
The test system of assay [1] is psoriatic arthritis pain, fingers and wrists. Kind of assay: Example 48: comparative analgesic efficacy, psoriatic arthritis pain of fingers and wrists, topical. The conditions noted are these: 1% (w/v) in WEP442, topical. The text has this:
[…] Treatment of the subject over the years included methotrexate and other antimetabolites, and in recent years drugs known as biologic medications. While these agents have provided intervals of relief, none has provided a lasting benefit. Over the past decade, painful arthritis developed in both wrists and in numerous joints of the fingers. Four related tetrapeptide derivatives, 1% (w/v) solution compositions in vehicle WEP442, one at a time, were topically applied to the fingers and wrists of both hands. […] Efficacy was rated by the subject as 4+. • (B) N-Ac-Tyr-Pro-Phe-Phe-NHNH2 (SEQ ID NO: 31) provided slow relief of pain, i.e. within about 10 minutes. […] Analgesic efficacy was judged by the subject to be 0 to 1+.

Another assay has as its system TMJ syndrome pain. Kind of assay: Example 41: analgesic effect on TMJ pain, topical. Particulars: 0.5% (w/v) in WEP442, topical. The text has this:
The same subject, also suffered pain from TMJ syndrome involving the left side joint for about 6 years. Attempts to alleviate the pain, e.g. cushioning mouth pieces worn during the night, failed. […] Increasing longer periods of relief have occurred over 5-6 weeks. They have reported that there was no more pain in the affected joint over a period of about one month.

Assay [2] has as its system chronic subpatellar and peripheral patellar pain. Kind of assay: Example 8: analgesic effect on knee pain, topical. An excerpt: A subject had chronic subpatellar and peripheral patellar pain in their knees.
The subject topically applied an anhydrous composition containing 0.7% (w/v) N-Ac-Tyr-Pro-Phe-Phe-NH2 (SEQ ID NO: 23) in EP73, formulated as described in Example 2, at bedtime. The next morning, they observed about 50% relief of pain. The subject topically re-applied the same composition under a plastic film wrap for one hour, after which they observed about 95% relief of pain.

The test system of assay [3] is sub-acute pain of left wrist. Kind of assay: Example 10: analgesic effect on wrist pain, topical. The method, then:
A subject had sub-acute pain of their left wrist, which they twisted while lifting a child.
The subject topically applied an anhydrous composition containing 0.7% (w/v) N-Ac-Tyr-Pro-Phe-Phe-NH2 (SEQ ID NO: 23) in EP73, formulated as described in Example 2, before bedtime. The next morning, about 70% relief of pain was observed. The subject topically re-applied the same composition under plastic film wrap for 2 hours, and the wrist pain was completely eradicated. The subject was free of any wrist pain and the improvement was 100% as judged by clinical evaluation.

Another assay relates to neck and shoulder pain. In words: Example 16: analgesic effect on neck and shoulder pain, topical. The conditions noted are these: 0.5% (w/v) in WEP442, topical. The method, then:
The subject could not move their neck without having a high level of pain and discomfort. The subject topically applied a composition containing 0.5% (w/v) N-Ac-Tyr-Pro-Phe-Phe-NH2(SEQ ID NO: 23) in WEP442 to the affected area of the skin. […] The pain relief lasted for more than 2 hours.

The test system of assay [4] is disabling pain in hands and fingers after exertion. In words: Example 25: analgesic effect on severe muscle soreness, topical. Particulars: 1% (w/v) in WEP442, topical. The text has this:
A subject had disabling pain in their hands and fingers the next morning after a day of intense exertion of the hands and fingers from using hand screw drivers over a 12-hour period during a building construction job. The intensity of pain was so great that they were unable to lace up their work boots.

Assay [5] concerns knee pain, lateral meniscus. In words: Example 58: analgesic effect on knee pain due to injured lateral meniscus, topical. The conditions noted are these: 1% (w/v) in WEP442, topical. The text has this: A subject had knee pain at the site of the lateral meniscus of the right knee, secondary to repeated trauma in the course of their work as a house builder. They evaluated two (2) tetrapeptide derivatives for efficacy in relieving this pain, including N-Ac-Tyr-Pro-Phe-Phe-NH2 (SEQ ID NO: 23) and N-Pg-Tyr-Pro-Phe-Phe-NH2 (SEQ ID NO: 44), both as a 1% (w/v) solution composition in WEP442. One solution composition was topically applied during the course of a day; and the other solution composition was topically applied during the course of the following day. The evaluation continued over a period of 8 days in this schedule.

The subject of assay [6] is severe pain on the left hip. In words: Example 89: analgesic effect on hip pain, topical. The conditions noted are these: 1% (w/v) in WEP442, topical. An excerpt: A subject had severe lumber stenosis (lower back arthritis) for about 3 years caused by a fall from a ladder 7 years earlier. The subject had been pain free from lower back arthritis due to weekly acupuncture treatment, usually at 10 AM every Tuesday. On one Friday evening, the subject suddenly developed severe pain on the left hip and the pain persisted.

Assay [7] has as its system arthritic pain in upper back. Kind of assay: Example 20: analgesic effect on arthritic pain of upper back, topical. The method, then:
A subject had arthritic pain in their upper back and associated paresthesia of their fingers, described as feelings of tingling and “pins and needles”. These symptoms had been present for about 1 year. […] Pain relief lasted for 10-12 hours. […] Repeated applications for 10-12 days gave the same results.

For assay [8], the system named is painful arthritis of hands. Kind of assay: Example 76: analgesic effect on arthritis pain of the hands, topical. The conditions noted are these: 0.5% (w/v) in WEP442, topical; before about 20 minutes. As to the method: A subject, and a veteran guitar player, was able to play their instrument in previous years for about an hour in group session performances. […] The subject reported that topical application to their hands of a composition containing 0.5% (w/v) of N-Pg-Tyr-Pro-Phe-Phe-NH2 (SEQ ID NO: 44) in WEP442 enabled them to play their guitar for 1 hour pain free. They also noted that the quality of their performance had improved.

The test system of a further assay is discomfort of hands. Kind of assay: Example 63: analgesic effect on wrist and hand pain, topical. Particulars: 0.5% (w/v) in WEP442, topical. The text has this:
A person hairdresser, after several hours of styling hair, experienced substantial discomfort on their hands that interfered with further pursuit of their work.

A further assay relates to restless leg syndrome. In words: Example 75: treatment of restless leg syndrome, topical. Particulars: 1% (w/v) in WEP442, topical to legs after an episode. An excerpt: Restless leg syndrome (RLS) is a disorder in which involuntary movements of the legs occur during the sleeping hours. A subject, presented with RLS for a duration of about 4 years. The disorder in the subject had not responded to therapy with opiates, nor to a benzodiazepine medication.

For `CC(=O)N[C@@H](Cc1ccc(O)cc1)C(=O)N1CCC[C@H]1C(=O)N[C@@H](Cc1ccccc1)C(=O)N[C@@H](Cc1ccccc1)C(N)=O` [N-Ac-Tyr-Pro-Phe-Phe-NH2], the pain relief result in assay [1] was “rapid complete relief of pain”; in the assay on TMJ syndrome pain, “rapidly and completely alleviated pain”; in [4] (hand-wash manner) it was “instantaneous, complete relief of pain”; in assay [5] it was “complete relief of pain”; in [6], “the pain disappeared”; in [7] (1% (w/v) in WEP442, daily topical to upper back) it was “relieved the upper back pain completely”. The “duration of pain relief” value with TMJ syndrome pain is “more than 8 hours”; in the assay with neck and shoulder pain, “more than 2 hours”; in assay [5], “about 4 hours”; in assay [7] (1% (w/v) in WEP442, topical), 10 to 12 h. Also, the relief of pain entry in [2] (0.7% (w/v) in EP73, re-applied under plastic film wrap for one hour) is listed as “about 95%”; in [2] (0.7% (w/v) in EP73, topical at bedtime, next morning) it was “about 50%”; in assay [3] (0.7% (w/v) in EP73, topical before bedtime, next morning) it was “about 70%”. Also, the “improvement by clinical evaluation” value in [3] (0.7% (w/v) in EP73, re-applied under plastic film wrap for 2 hours) was found to be 100%. In addition, the “relief of pain in shoulder and neck” value with neck and shoulder pain is reported as “approximately 90%”. Besides, the “time to pain relief” value in the assay on neck and shoulder pain is at most 2 min; in [6], “about 2 minutes”; in assay [7] (1% (w/v) in WEP442, topical), 3 to 4 min. For the same molecule, the recurrence entry in [4] is reported as “did not recur at all”. Besides, in [6], the analgesic effect grade is reported as 4+ (4+ (90-100%): complete relief or eradication of pain for more than 4 hours). The “time without return of pain” value in assay [6] was over 12 h. Moreover, the “paresthesia of the fingers” value in assay [7] (1% (w/v) in WEP442, topical to upper back) is listed as “persisted without any discernible change”.

With “N-Pg-Tyr-Pro-Phe-Phe-NH2 ([pGlu]YPFF-NH2; SMILES NC(=O)[C@H](Cc1ccccc1)NC(=O)[C@H](Cc1ccccc1)NC(=O)[C@@H]1CCCN1C(=O)[C@H](Cc1ccc(O)cc1)NC(=O)[C@@H]1CCC(=O)N1)”, the “pain free guitar playing time” value in assay [8] turned out to be 1 h. Also, the pain relief result is reported as “rapid relief of pain” in [1] and “complete relief of pain” in assay [5]. The “duration of pain relief” value in assay [5] is “about 4 hours”. In addition, the relief of discomfort entry with discomfort of hands is “complete relief”. The involuntary leg movement result in the assay on restless leg syndrome was “completely prevented further involuntary leg movement”.
